Test results as given in US7153876B2, “Malonamid and malonamic ester derivatives with antithrombotic activity, their preparation, and their use” (Sanofi-Aventis Deutschland GmbH, priority 2000, dated 2006).

What follows are compounds tested against T1, human factor VIIa and TF (factor VIIa/TF) (Homo sapiens, UniProt P08709) (assay: Factor VIIa (FVIIa) chromogenic assay). Conditions: inhibition constant towards factor VIIa/TF activity; chromogenic substrate S-2288 500 μM; 25° C.; 15 minute preincubation; factor VIIa 5 nM, TF 10 nM.
T1 construct: human factor VIIa and TF (5 nM and 10 nM, respective final concentration)
Format: biochemical
Procedure: The ability of compounds of formula I to inhibit factor VIIa or other enzymes like factor Xa, thrombin, plasmin, or trypsin can be assessed by determining the concentration of the compound of formula I that inhibits enzyme activity by 50%, i.e., the IC50 value, which is related to the inhibition constant Ki. Purified enzymes are used in chromogenic assays. The concentration of inhibitor that causes a 50% decrease in the rate of substrate hydrolysis is determined by linear regression after plotting the relative rates of hydrolysis (compared to the uninhibited control) versus the log of the concentration of the compound of formula I. For calculating the inhibition constant Ki, the IC50 value is corrected for competition with substrate using the formula Ki=IC50/[1+(substrate concentration/Km)] wherein Km is the Michaelis-Menten constant (Chen and Prusoff, Biochem. Pharmacol. 22 (1973), 3099-3108; I. H. Segal, Enzyme Kinetics, 1975, John Wiley & Sons, New York, 100–125; which are incorporated herein by reference). Factor VIIa (FVIIa) Assay:
The inhibitory activity (expressed as inhibition constant Ki (FVIIa)) of compounds of formula I towards factor VIIa/TF activity was determined using a chromogenic assay essentially as described previously (J. A. Ostrem et al., Biochemistry 37 (1998) 1053–1059, which is incorporated herein by reference). Kinetic assays were conducted at 25° C. in half-area microtiter plates (Costar Corp., Cambridge, Mass.) using a kinetic plate reader (Molecular Devices Spectramax 250). A typical assay consisted of 25 μl human factor VIIa and TF (5 nM and 10 nM, respective final concentration) combined with 40 μl of inhibitor dilutions in 10% DMSO/TBS-PEG buffer (50 mM Tris, 15 mM NaCl, 5 mM CaCl2, 0.05% PEG 8000, pH 8.15). Following a 15 minute preincubation period, the assay was initiated by the addition of 35 μl of the chromogenic substrate S-2288 (D-IIe-Pro-Arg-p-nitroanilide, Pharmacia Hepar Inc., 500 μM final concentration).

T1 sequence (P08709 61-212 limits assumed): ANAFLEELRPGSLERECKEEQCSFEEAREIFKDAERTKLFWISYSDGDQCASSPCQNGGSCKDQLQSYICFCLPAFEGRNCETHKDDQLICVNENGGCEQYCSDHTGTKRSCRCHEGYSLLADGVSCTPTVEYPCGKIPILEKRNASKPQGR
T1 sequence (P08709 213-466 limits assumed): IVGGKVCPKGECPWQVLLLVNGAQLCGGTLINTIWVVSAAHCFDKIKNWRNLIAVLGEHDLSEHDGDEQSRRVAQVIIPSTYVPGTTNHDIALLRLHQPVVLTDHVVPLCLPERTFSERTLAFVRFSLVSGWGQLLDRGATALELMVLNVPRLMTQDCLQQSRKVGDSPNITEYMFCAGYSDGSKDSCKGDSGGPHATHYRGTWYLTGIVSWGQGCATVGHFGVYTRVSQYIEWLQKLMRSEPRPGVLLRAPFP
T1 sequence (P13726 33-295 partner): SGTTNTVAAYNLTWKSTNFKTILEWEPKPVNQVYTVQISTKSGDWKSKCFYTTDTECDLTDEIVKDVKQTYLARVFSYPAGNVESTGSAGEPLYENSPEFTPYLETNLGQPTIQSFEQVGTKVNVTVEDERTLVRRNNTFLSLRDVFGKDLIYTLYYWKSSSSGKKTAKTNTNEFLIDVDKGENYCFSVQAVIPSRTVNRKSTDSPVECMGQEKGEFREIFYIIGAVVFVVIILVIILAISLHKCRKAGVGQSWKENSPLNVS

Structure (SMILES)	Ki [µM]
N=C(N)c1ccc(NC(=O)C(C(=O)OCc2ccccc2)c2ccccc2)cc1 (stereo not drawn) [Example 1, N-(4-Carbamimidoyl-Phenyl)-2-Phenyl-Malonamic Acid Benzyl Ester]	14
CC(NC(=O)C(C(=O)Nc1ccc(C(=N)N)cc1)c1ccccc1)c1ccc([N+](=O)[O-])cc1 (stereo not drawn) [Example 3, N-(4-Carbamimidoyl-Phenyl)-N′-[1-(4-Nitro-Phenyl)-Ethyl]-2-Phenyl-Malonamide, Formiate]	0.198
N#CC(NC(=O)C(C(=O)Nc1ccc(C(=N)N)cc1)c1ccccc1)c1ccccc1 (stereo not drawn) [Example 6]	3.82
COc1ccc2c(c1)C[C@@H](NC(=O)C(C(=O)Nc1ccc(C(=N)N)cc1)c1ccccc1)CC2 (stereo partly drawn) [Example 8]	7.12
C[C@H](NC(=O)C(C(=O)Nc1ccc(C(=N)N)cc1)c1ccccc1)c1ccc(Br)cc1 (stereo partly drawn) [Example 12]	0.301
N=C(N)c1ccc(NC(=O)C(C(=O)NCc2c(Cl)cccc2Oc2ccccc2)c2ccccc2)cc1 (stereo not drawn) [Example 17]	6.62
C[C@H](NC(=O)C(C(=O)Nc1ccc(C(=N)N)cc1)c1ccccc1)c1cccc(Br)c1 (stereo partly drawn) [Example 23]	0.157
COc1ccc([C@H](C)NC(=O)C(C(=O)Nc2ccc(C(=N)N)cc2)c2ccccc2)cc1 (stereo partly drawn) [Example 26]	0.381
N=C(N)c1ccc(NC(=O)C(C(=O)NCc2ccc(-c3csnn3)cc2)c2ccccc2)cc1 (stereo not drawn) [Example 28]	6.02
N=C(N)c1ccc(NC(=O)C(C(=O)NCc2cccc([N+](=O)[O-])c2)c2ccccc2)cc1 (stereo not drawn) [Example 35]	3.01
COc1ccc(CNC(=O)C(C(=O)Nc2ccc(C(=N)N)cc2)c2ccccc2)cc1OC (stereo not drawn) [Example 38]	17.4
N=C(N)c1ccc(NC(=O)C(CCc2ccccc2)C(=O)NCc2ccccc2)cc1 (stereo not drawn) [Example 40]	2.81
C[C@H](NC(=O)C(CCc1ccccc1)C(=O)Nc1ccc(C(=N)N)cc1)c1ccc2ccccc2c1 (stereo partly drawn) [Example 42]	17.1
C[C@H](NC(=O)C(C(=O)Nc1ccc(C(=N)N)cc1)c1ccccc1)c1ccc2ccccc2c1 (stereo partly drawn) [Example 43]	0.124
C[C@H](NC(=O)CC(=O)Nc1ccc(C(=N)N)cc1)c1ccc2ccccc2c1 [Example 44]	0.376
